PMC10224031, “Arylimidamides Have Potential for Chemoprophylaxis against Blood-Transmitted Chagas Disease” (Pathogens, 2023)
Where “and” joins values, the source holds several entries; their conditions need not be identical. Equal values may be shown once. Read-outs that look alike come from different tables or passages of the source. Marks after values point to notes of the source that are not given here.

How the values were obtained:
[1] = tested on: T. cruzi bloodstream trypomastigotes; assay: In vivo infectivity in Swiss mice of blood samples infected with bloodstream trypomastigotes pre-treated with AIAs or CV; parameters: species or system Trypanosoma cruzi; conditions: for suppression of the parasite load (parasitemia): both genders; for Clearance of the Parasitemia / Clearance of the Parasitemia after cyclophosphamide administration: cleared mice/total
Method: Male and female Swiss Webster mice (18–20 g) were obtained from the Fundação Oswaldo Cruz animal facilities (ICTB, Rio de Janeiro, Brazil). Mice were housed at a maximum of five per cage, kept in a specific pathogen-free (SPF) room at 20 to 24 °C under a 12-h/12 h light/dark cycle and provided sterilized water and chow ad libitum. The animals were allowed to acclimate for 7 days before the start of the experiments.
For evaluation of the chemoprophylactic potential of the AIAs and CV in vivo, the mice were inoculated (via i.p.) with 10^4 trypomastigotes into 200 µL of: (a) infected untreated blood samples; (b) infected using blood samples pre-treated for 2 h with the compounds at a concentration corresponding either to their EC50 or with 96 µM of one of the AIAs.
Parasitemia of individual mice was daily checked (until 10 dpi, and then, twice a week) by direct microscopic counting of parasites in 5 µL of blood taken via tail prick. Body weight was evaluated weekly, and mortality was checked daily until 40 days post-treatment and expressed as the percentage of survival. Thirty days after treatment the animals were immunosuppressed with cyclophosphamide (50 mg/kg) in three cycles of 4 consecutive days/week and the parasitemia and mortality rates were evaluated for 4 weeks.

[2] = tested on: bloodstream trypomastigotes (BT) of Trypanosoma cruzi; assay: In vitro infectivity of bloodstream trypomastigotes pre-treated with AIAs in cardiac cell cultures; assay type: cell-based; conditions: for Par./Infected CC / II (infection index = % infection × parasites/infected CM) / % Infection: BT pre-treated 2 h at EC50 (DB745 6.4 μM, DB766 1.14 μM)
Method: Bloodstream trypomastigote (BT) forms of the Y strain were obtained from infected male Swiss mice, at peak parasitemia. The purified parasites were resuspended in Dulbecco’s modified Eagle’s medium (DME) supplemented with 10% FBS (DMES). […] Then, the parasite suspensions were centrifuged (3000 rpm/10 min) and the pellet resuspended in RPMI, quantified through light microscopy, and used for the infection of Swiss embryo mouse cardiac cell cultures (CC) seeded (15 × 10^4 cells/well) in 24-well plates (10:1 parasite–cell ratio). After 24 h of parasite–host cell interaction, the infected cultures were washed to remove free parasites and maintained at 37 °C in an atmosphere of 5% CO2 and air and the culture medium replaced every 24 h. Afterwards, untreated and treated infected cardiac cells (CCs) were fixed and stained with Giemsa and examined via light microscopy. Only characteristic T. cruzi nuclei and kinetoplasts were counted as surviving parasites since irregular structures could mean parasites undergoing death. The activity of the AIAs was estimated by calculating the infection index (II), which corresponds to the percentage of infected cells multiplied by the average number of intracellular parasites per infected host cell. Duplicate assays were run in the same plate and at least two independent assays were performed as standard.

[3] = tested on: bloodstream trypomastigotes of Trypanosoma cruzi; conditions: cited from earlier work; for fold more effective than crystal violet (trypanocidal activity): 4 °C in the presence of 96% mouse blood
[4] = tested on: mouse blood cells; assay type: cell-based; conditions: Swiss Webster, 24 h
Method: In 96-well microplates, 100 µL of the mouse blood suspension was added to the same volume of DB745 or DB766 at concentrations ranging from 2.4 to 192 µM. After incubation at 4 °C for 24 h, the samples were centrifuged (5 min/540× g) and a 100 µL aliquot was transferred to another microplate and the levels of hemoglobin measured at 540 nm. Deionized water was used as control for 100% hemolytic activity, and PBS as a negative control. The degree of hemolysis was calculated by the variation index (VI) that corresponds to the ratio of optical density (OD) of the treated sample/positive control. The reading of the OD of the samples was performed in the SpectraMax® Plus 384 Absorbance Plate Reader spectrophotometer (540 nm) and duplicate samples were run in at least two assays.

[5] = experiment # 1, inoculum pre-treated 2 h at 96 μM, male Swiss mice, n = 5, vehicle 261.1 ± 124.6
[6] = experiment # 1, pre-treatment at 96 μM
[7] = experiment # 2, inoculum pre-treated 2 h at 96 μM, male Swiss mice, n = 5, vehicle 277.9 ± 57.2
[8] = experiment # 2, pre-treatment at 96 μM
[9] = female Swiss mice, n = 10, inoculum pre-treated at 96 µM, vehicle 247.7 ± 25.3
[10] = female mice, 96 µM, untreated 0%
[11] = male Swiss mice, n = 10, inoculum pre-treated at 96 µM, vehicle 209.8 ± 29.2
[12] = experiment # 1, inoculum pre-treated 2 h at EC50, male Swiss mice, n = 5, vehicle 261.1 ± 124.6
[13] = experiment # 1, pre-treatment at EC50
[14] = experiment # 2, inoculum pre-treated 2 h at EC50, male Swiss mice, n = 5, vehicle 277.9 ± 57.2
[15] = experiment # 2, pre-treatment at EC50
[16] = 24 h of parasite-host cell interaction, untreated 23.4 ± 5.5
[17] = 2 h incubation, infected mouse blood, read-out: EC50

| Clearance of the Parasitemia [1, 13] | Clearance of the Parasitemia [1, 15] | Structure (SMILES) | suppression of the parasite load (parasitemia) ([1]; 96 µM) | Parasitemia at 8 dpi [1, 5] | Clearance of the Parasitemia [1, 6] | Parasitemia at 8 dpi [1, 7] | Clearance of the Parasitemia [1, 8] | Parasitemia at 8 dpi [1, 9] | Clearance of the Parasitemia after cyclophosphamide administration ([1]; female Swiss mice, 96 µM) | animal survival [1, 10] | Parasitemia at 8 dpi [1, 11] | Clearance of the Parasitemia after cyclophosphamide administration ([1]; male Swiss mice, 96 µM) | animal survival ([1]; male mice, 96 µM, untreated 0%) | Parasitemia at 8 dpi [1, 12] | Parasitemia at 8 dpi [1, 14] | Par./Infected CC ([2]; 24 h, untreated 1.6 ± 0.5) | II (infection index = % infection × parasites/infected CM) ([2]; 24 h, untreated 38 ± 16) | % Infection [2, 16] | Par./Infected CC ([2]; 72 h, untreated 17.7 ± 1.7) | fold more effective than crystal violet (trypanocidal activity) [3] | other results |
| --- | --- | --- | --- | --- | --- | --- | --- | --- | --- | --- | --- | --- | --- | --- | --- | --- | --- | --- | --- | --- | --- |
|  |  | CN(C)c1ccc(C(=C2C=CC(=[N+](C)C)C=C2)c2ccc(N(C)C)cc2)cc1 [CV, crystal violet, reference compound] | > 99% | 34.7 ± 38.5 ×10^4 Parasites/mL | 0/5 | 1.6 ± 1.7 ×10^4 Parasites/mL | 0/5 | 0 ± 0 10^4 parasites/mL | 3/10 | 90% | 0.1 ± 0.2 10^4 parasites/mL | 4/10 | 60% |  |  |  |  |  |  |  |  |
| 0/5 | 0/5 | CCOc1cc(NC(=N)c2ccccn2)ccc1-c1ccc(-c2ccc(NC(=N)c3ccccn3)cc2OCC)o1 [DB745] |  | 4.6 ± 2.4 ×10^4 Parasites/mL | 0/5 | 1.3 ± 1.1 ×10^4 Parasites/mL | 0/5 |  |  |  |  |  |  | 156.4 ± 31.1 ×10^4 Parasites/mL | 4.2 ± 2.1 ×10^4 Parasites/mL | 1.4 ± 0.3 | 10 ± 4.4 | 7.3 ± 3.4 % | 18.6 ± 2.4 | at least 30 fold | reduction of parasitemia peak ([1]; inoculum pre-treated at EC50, male Swiss mice): > 98%; % Infection ([2]; 72 h, untreated 26.3 ± 2.3): 14.6 ± 0.2%; II (infection index = % infection × parasites/infected CM) ([2]; 72 h, untreated 466 ± 49): 272 ± 39; effect on parasite multiplication (parasites per infected host cell) ([2]; BT pre-incubated at EC50): only slightly impaired the parasite multiplication; EC50 [3, 17]: 6400 nM; OD ([4]; 1.2 μM): 0.220 ± 0.063; VI (variation index = OD(treated)/OD(control)) ([4]; 1.2 μM): 0.084; OD ([4]; 3.9 μM): 0.215 ± 0.037; VI (variation index = OD(treated)/OD(control)) ([4]; 3.9 μM): 0.082; OD ([4]; 10.6 μM): 0.184 ± 0.014; VI (variation index = OD(treated)/OD(control)) ([4]; 10.6 μM): 0.070; OD ([4]; 32 μM): 0.195 ± 0.007; VI (variation index = OD(treated)/OD(control)) ([4]; 32 μM): 0.074; OD ([4]; 96 μM): 0.206 ± 0.004; VI (variation index = OD(treated)/OD(control)) ([4]; 96 μM): 0.078 |
| 0/5 | 0/5 | CC(C)Oc1cc(NC(=N)c2ccccn2)ccc1-c1ccc(-c2ccc(NC(=N)c3ccccn3)cc2OC(C)C)o1 [DB766] |  | 7.9 ± 5.2 ×10^4 Parasites/mL | 0/5 | 0.7 ± 1.1 ×10^4 Parasites/mL | 0/5 |  |  |  |  |  |  | 141.3 ± 152.7 ×10^4 Parasites/mL | 170.5 ± 39 ×10^4 Parasites/mL | 0.5 ± 0.7 | 0.5 ± 2.1 | 1% and 1.0 ± 1.5 % | 0.3 ± 0.4 | at least 30 fold | decrease in number of parasites per infected host cell ([2]; 24 h of CC infection, BT pre-incubated at EC50): 69%; % Infection ([2]; 72 h, untreated 26.3 ± 2.3): 0.1% and 0.1 ± 0.2%; II (infection index = % infection × parasites/infected CM) ([2]; 72 h, untreated 466 ± 49): 0.03 ± 0.2; decrease in number of parasites per infected host cell ([2]; 72 h of CC infection, BT pre-incubated at EC50): 98%; reduction in the II ([2]; BT pre-incubated at EC50): > 99%; EC50 [3, 17]: 1140 nM; OD ([4]; 3.9 μM): 0.248 ± 0.018; VI (variation index = OD(treated)/OD(control)) ([4]; 3.9 μM): 0.094; OD ([4]; 10.6 μM): 0.200 ± 0.034; VI (variation index = OD(treated)/OD(control)) ([4]; 10.6 μM): 0.076; OD ([4]; 32 μM): 0.230 ± 0.051; VI (variation index = OD(treated)/OD(control)) ([4]; 32 μM): 0.088; OD ([4]; 96 μM): 0.317 ± 0.069; VI (variation index = OD(treated)/OD(control)) ([4]; 96 μM): 0.121 * |

| Structure (SMILES) | Clearance of the Parasitemia [1, 13] | Clearance of the Parasitemia [1, 15] | suppression of the parasite load (parasitemia) ([1]; 96 µM) | Parasitemia at 8 dpi [1, 5] | Clearance of the Parasitemia [1, 6] | Parasitemia at 8 dpi [1, 7] | Clearance of the Parasitemia [1, 8] | Parasitemia at 8 dpi [1, 9] | Clearance of the Parasitemia after cyclophosphamide administration ([1]; female Swiss mice, 96 µM) | animal survival [1, 10] | Parasitemia at 8 dpi [1, 11] | Clearance of the Parasitemia after cyclophosphamide administration ([1]; male Swiss mice, 96 µM) | animal survival ([1]; male mice, 96 µM, untreated 0%) | Parasitemia at 8 dpi [1, 12] | Parasitemia at 8 dpi [1, 14] | Par./Infected CC ([2]; 24 h, untreated 1.6 ± 0.5) | II (infection index = % infection × parasites/infected CM) ([2]; 24 h, untreated 38 ± 16) | % Infection [2, 16] | Par./Infected CC ([2]; 72 h, untreated 17.7 ± 1.7) | fold more effective than crystal violet (trypanocidal activity) [3] | other results |
| --- | --- | --- | --- | --- | --- | --- | --- | --- | --- | --- | --- | --- | --- | --- | --- | --- | --- | --- | --- | --- | --- |
| CC(C)Oc1cc(NC(=N)c2ncccn2)ccc1-c1ccc(-c2ccc(NC(=N)c3ncccn3)cc2OC(C)C)o1 [DB1831] | 0/5 | 0/5 | > 99% | 0.0 ± 0.0 ×10^4 Parasites/mL | 2/5 | 0.0 ± 0.0 ×10^4 Parasites/mL | 4/5 | 0.1 ± 0.5 10^4 parasites/mL | 2/10 | 100% | 0.0 ± 0.0 10^4 parasites/mL | 7 out of 10 and 7/10 | 90% | 366.2 ± 295.1 ×10^4 Parasites/mL | 157.7 ± 55.9 ×10^4 Parasites/mL |  |  |  |  | at least 30 fold | infected mice with complete clearance of parasitemia ([1]; 96 µM, even after immune suppression with cyclophosphamide): 60%; animal survival ([1]; 96 µM, vehicle treated samples 0%): ≥ 90%; EC50 ([3]; used as inoculation pre-treatment concentration (Table 3 footnote a), read-out: EC50/2 h): 500 nM |
